The values below come from ChEMBL document CHEMBL1201862, “PubChem BioAssay data set” (2004).

Test systems include HT-29; U-251; ACHN; M14; SN12C; TK-10; SF-268; SW-620; OVCAR-3; SF-539; OVCAR-5; HCC 2998; SNB-75; UO-31; COLO 205; RXF 393; CCRF-CEM; MCF7.
Holding throughout (test): DTP human tumour cell line panel, 48 h

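Values below derive from 48-hour exposures of cells grown in 96-well plates, with endpoints linearly interpolated between the two concentrations bracketing the appropriate inhibition level. The concentration for 50% growth inhibition is given as GI50.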 The source made the active and inactive calls. Rule as the data show it: active = GI50 up to about 1.1 µM and inactive = higher.

For `CC(C)(C)/N=C/N1C=Cc2nc3ccccc3cc2C1`, the GI50 in the assay with HT-29, in the assay on U-251, in the assay on ACHN, in the assay on M14, in the assay on SN12C and in the assay on TK-10 was > 100 µM (inactive) throughout. The GI50 was > 100 µM (inactive) in the assay on SF-268; 19.5 µM (inactive) in the assay on SW-620; > 100 µM (inactive) in the assay with OVCAR-3; > 100 µM (inactive) in the assay with SF-539; > 100 µM (inactive) in the assay on OVCAR-5; > 100 µM (inactive) with HCC 2998. Also, the GI50 in the assay on SNB-75 was > 100 µM (inactive); in the assay on UO-31 it was > 100 µM (inactive); with COLO 205, 36.9 µM (inactive); with RXF 393, > 100 µM (inactive); in the assay on CCRF-CEM it was > 100 µM (inactive).

With `COc1ccc2[nH]c3c(c2c1)[C@H]1CCC(C(C)(C)C)C[C@H]1[C@H]1C(=O)N(c2ccccc2)C(=O)[C@@H]31` (some centres not stated), the GI50 is > 100 µM (inactive) in the assay on HT-29; 6.14 µM (inactive) with U-251; 4.17 µM (inactive) with ACHN; 8.22 µM (inactive) in the assay with M14; 11.9 µM (inactive) in the assay with SN12C; 22.6 µM (inactive) in the assay with TK-10. Moreover, the GI50 was 13.1 µM (inactive) in the assay with SF-268; 20.2 µM (inactive) in the assay with SW-620; 23.3 µM (inactive) in the assay on OVCAR-3; 5.4 µM (inactive) in the assay with SF-539; > 60.1 µM (inactive) with OVCAR-5; 36 µM (inactive) with HCC 2998. The GI50 in the assay on SNB-75 is 5.97 µM (inactive); with UO-31, 24 µM (inactive); in the assay on COLO 205, 11.4 µM (inactive); in the assay with RXF 393 it was 9.42 µM (inactive); in the assay on CCRF-CEM, 18.9 µM (inactive).

With `CCCCc1nccc2c(C)c3[nH]c4ccccc4c3cc12`, the GI50 in the assay with HT-29 is 2.62 µM (inactive); with MCF7 it was 2.69 µM (inactive); with U-251 it was 3.37 µM (inactive); with SN12C, 6.98 µM (inactive); in the assay on SF-268 it was 5.87 µM (inactive); in the assay on SW-620, 2.26 µM (inactive). Further, the GI50 in the assay with OVCAR-3 was 2.79 µM (inactive); with SF-539 it was 2.45 µM (inactive); with OVCAR-5, 6.44 µM (inactive); in the assay with HCC 2998 it was 3.44 µM (inactive); in the assay on SNB-75, 5.93 µM (inactive); in the assay on UO-31, 1.86 µM (inactive). For the same compound, the GI50 in the assay with COLO 205 is 0.92 µM (active); in the assay on RXF 393 it was 2.22 µM (inactive); with CCRF-CEM, 2.85 µM (inactive).

In the case of `CC/C(SC)=[N+](\C)[O-]`, the GI50 in the assay on HT-29, in the assay on U-251, with ACHN, in the assay with M14, in the assay with SN12C and in the assay with TK-10 was > 100 µM (inactive) each time. The GI50 in the assay with SF-268, in the assay with SW-620, with OVCAR-3, in the assay with SF-539, with OVCAR-5 and in the assay with HCC 2998 was > 100 µM (inactive) in each case. In addition, the GI50 in the assay on SNB-75 is > 67.9 µM (inactive); with UO-31, > 100 µM (inactive); in the assay with COLO 205, > 44.8 µM (inactive); with RXF 393 it was > 100 µM (inactive); in the assay on CCRF-CEM, 15.5 µM (inactive).

As to `O=C1OC(c2ccccc2)=N/C1=C/NC(Cc1c[nH]c2ccccc12)C(=O)O` (configuration not stated), the GI50 with HT-29, with U-251, in the assay on ACHN, with M14, in the assay on SN12C and in the assay on TK-10 was > 100 µM (inactive) each time. Moreover, the GI50 in the assay on SF-268, with SW-620, in the assay on OVCAR-3, in the assay on SF-539, in the assay with OVCAR-5 and in the assay with HCC 2998 was > 100 µM (inactive) throughout. For the same compound, the GI50 is 69.7 µM (inactive) in the assay with SNB-75; > 100 µM (inactive) in the assay on UO-31; > 100 µM (inactive) in the assay with COLO 205; > 100 µM (inactive) with RXF 393; > 100 µM (inactive) with CCRF-CEM.

Turning to `O=C1C2C3C=CC(C2C(=O)N1CO)C1C2C(=O)N(CO)C(=O)C2C31` (configuration not stated), the GI50 is 92.5 µM (inactive) with HT-29; > 67.1 µM (inactive) in the assay with U-251; > 44.9 µM (inactive) in the assay on ACHN; > 100 µM (inactive) in the assay with M14; > 69.8 µM (inactive) in the assay on SN12C; > 100 µM (inactive) in the assay with TK-10. Moreover, the GI50 in the assay with SF-268 is > 50.4 µM (inactive); in the assay with SW-620 it was 33.5 µM (inactive); with OVCAR-3, > 92.9 µM (inactive); in the assay with SF-539, > 61 µM (inactive); with OVCAR-5, > 100 µM (inactive); in the assay on HCC 2998 it was > 100 µM (inactive). In addition, the GI50 in the assay on SNB-75 was 70.8 µM (inactive); with UO-31, > 100 µM (inactive); in the assay with COLO 205, > 48.2 µM (inactive); in the assay with RXF 393, > 81.7 µM (inactive); in the assay on CCRF-CEM, 23.6 µM (inactive).

Turning to `CC1=CC2CC(C)C1(C)CCc1ccoc12` (configuration not stated), the GI50 in the assay with HT-29, in the assay with U-251, with ACHN, with M14, with SN12C and with TK-10 was > 100 µM (inactive) each time. The GI50 in the assay on SF-268, in the assay with SW-620, in the assay with OVCAR-3, in the assay on SF-539, in the assay on OVCAR-5 and in the assay on HCC 2998 was > 100 µM (inactive) throughout. The GI50 in the assay on SNB-75, with UO-31, with COLO 205, in the assay on RXF 393 and in the assay with CCRF-CEM was > 100 µM (inactive) in each case.

In the case of `CC1CC(c2ccc(Cl)c(Cl)c2)=Nc2ccccc2S1` (configuration not stated), the GI50 in the assay on HT-29, in the assay on U-251, in the assay with ACHN, in the assay with M14, in the assay with SN12C and in the assay with TK-10 was > 100 µM (inactive) in each case. The GI50 was > 100 µM (inactive) in the assay with SF-268; > 100 µM (inactive) in the assay on SW-620; 44.5 µM (inactive) in the assay on OVCAR-3; > 100 µM (inactive) with SF-539; > 100 µM (inactive) in the assay with OVCAR-5; > 100 µM (inactive) in the assay with HCC 2998. The GI50 in the assay with SNB-75 is > 100 µM (inactive); in the assay on UO-31, > 100 µM (inactive); with COLO 205, > 100 µM (inactive); with RXF 393 it was > 100 µM (inactive); in the assay with CCRF-CEM, 41.9 µM (inactive).

`CN1c2ccccc2N(C)C23N(C)c4ccccc4N(C)C12N(C)c1ccccc1N3C` (configuration not stated): the GI50 in the assay on HT-29, in the assay on U-251, with ACHN, in the assay with M14, with SN12C and in the assay with TK-10 was > 100 µM (inactive) each time. Further, the GI50 was > 100 µM (inactive) in the assay with SF-268; > 100 µM (inactive) with SW-620; 33.6 µM (inactive) in the assay with OVCAR-3; > 100 µM (inactive) with SF-539; > 100 µM (inactive) in the assay on OVCAR-5; > 100 µM (inactive) in the assay on HCC 2998. Moreover, the GI50 in the assay with SNB-75 was 35.6 µM (inactive); in the assay with UO-31 it was > 100 µM (inactive); with COLO 205, > 100 µM (inactive); in the assay on RXF 393 it was > 100 µM (inactive); in the assay on CCRF-CEM, > 100 µM (inactive).

With `Clc1ccc2cccc3c2c1C1OC3c2ccccc21` (configuration not stated), the GI50 is 36.6 µM (inactive) with HT-29; > 100 µM (inactive) in the assay with U-251; > 100 µM (inactive) with ACHN; > 100 µM (inactive) in the assay on M14; > 100 µM (inactive) with SN12C; > 100 µM (inactive) in the assay on TK-10. The GI50 with SF-268, in the assay with SW-620, in the assay with OVCAR-3, in the assay on SF-539, with OVCAR-5 and in the assay on HCC 2998 was > 100 µM (inactive) in each case. Moreover, the GI50 in the assay on SNB-75 was 99.8 µM (inactive); in the assay with UO-31, > 100 µM (inactive); in the assay with COLO 205, > 100 µM (inactive); in the assay with RXF 393, 55.5 µM (inactive); with CCRF-CEM it was > 100 µM (inactive).

For the compound `COC(=O)/C(C=O)=C/Sc1ccccc1`, the GI50 is 25.5 µM (inactive) with HT-29; 17.1 µM (inactive) in the assay with U-251; 26.4 µM (inactive) in the assay on ACHN; 16.6 µM (inactive) in the assay on M14; 19.7 µM (inactive) with SN12C; 40.6 µM (inactive) in the assay with TK-10. Moreover, the GI50 in the assay with SF-268 is 11 µM (inactive); in the assay with SW-620, 37.9 µM (inactive); in the assay on OVCAR-3 it was 21.3 µM (inactive); in the assay on SF-539, 18 µM (inactive); in the assay with OVCAR-5, 37.6 µM (inactive); with HCC 2998 it was 37.8 µM (inactive). Besides, the GI50 in the assay with SNB-75 was 18.5 µM (inactive); in the assay with UO-31, 10.5 µM (inactive); in the assay on COLO 205, 20 µM (inactive); with RXF 393, 15.3 µM (inactive); in the assay on CCRF-CEM, 57.5 µM (inactive).

Consider `CC1=C(O)C(=O)c2cn(C)cc2C1=O`, for which the GI50 with HT-29, in the assay on U-251, in the assay with ACHN, with M14, with SN12C and in the assay with TK-10 was > 100 µM (inactive) throughout. The GI50 in the assay with SF-268, in the assay with SW-620, in the assay on OVCAR-3, in the assay with SF-539, in the assay with OVCAR-5 and in the assay on HCC 2998 was > 100 µM (inactive) throughout. In addition, the GI50 in the assay on SNB-75, in the assay with UO-31, with COLO 205, in the assay on RXF 393 and in the assay on CCRF-CEM was > 100 µM (inactive) in each case.
